{"source": "patent US20120045483A1", "about": "“Mannitol and/or Proline for Prevention and Treatment of Ageing Related Symptoms” (ERASMUS MC, priority 2006, published 2012)", "key": {"[1]": {"test_system": "Csb^G744ter/G744ter/Xpa^null/null double mutant mice", "assay_type": "in vivo, mouse", "conditions": "for Clearance from the tissues and bloodstream of treated subjects: higher single dose administrations; for Effectiveness of higher single dose administrations: versus low constant source; for Positive results as with mannitol and/or proline: tested under similar conditions", "source_text": "Additionally these animals have an enhanced photoreceptor cell loss. The accumulation of oxidative DNA damage before and immediately after birth presumably negatively influences transcription and causes the premature ageing phenotype.\nIn order to investigate the effect of radical scavengers on the CSB/XPA double knockout mice, the effect of several compounds and compositions was monitored by the frequency of CSB/XPA DKO mice (closer to the expected mendelian frequency of 25%), an extended life-span (longer than the average three weeks for untreated DKO mice) and a delay or to some extent inhibit the premature ageing phenotype.\nTo obtain CSB/XPA double mutant mice the following crossing were done:\nFrom these crossings CSB^−/−XPA^−/− mice were born with a frequency of 9%, whereas the expected Mendelian frequency is 25%.\nThe offspring were genotyped following normal procedures (tail clipping and genomic DNA analysis by Southern blot analysis or PCR amplification) and monitored for life span."}, "[2]": {"experiment": "Serum mannitol concentration in CSB mice with osmotic pump", "assay_type": "in vivo", "conditions": "mouse, sc, subcutaneous osmotic pump (200 μl), read-out: Serum [mannitol] after 3 weeks", "protocol": "The sample is further precipitated using acetonitrile and centrifuged. […] The organic layer is isolated and evaporated to dryness. The residue is dissolved in injection solvent and injected.\n21 CSB animals, age 6 months, received an osmotic pump, 7×30 mm (volume 200 μl), subcutaneously implanted under the skin on the back, for continuous release of Phosphate Buffered Saline (control), 0.3M D-Mannitol or 0.03M D-Mannitol dissolved in Phosphate Buffered Saline, 7 animals per compound. To determine the actual D-Mannitol concentration in the blood of these animals, blood samples were taken every 7 days after the implantation of the osmotic pump. After three weeks, eyes were isolated from these animals and TUNEL staining was performed to determine the effect of D-Mannitol on diminishing the age-related photoreceptor-loss in CSB animals, Blood and urine samples were taken for measurements of D-mannitol levels and for determination of biomarkers. In a second experiment, the D-Mannitol treatment via osmotic pumps were repeated, but here on 8 week-old CSB mice were γ-irradiated, in order to see if D-mannitol can reduce the γ-induced photoreceptor-loss observed in CSB mice."}, "CSB mice [3]": {"test_system": "CSB mice", "experiment": "Age-related photoreceptor loss in CSB mice, TUNEL staining of the retina, without radiation", "assay_type": "in vivo, mouse", "conditions": "for Apoptotic index without radiation (number of TUNEL-positive cells): osmotic pump, 3 weeks, CSB mice age 6 months", "protocol": "(§1) CSB mice have accelerated aging-related photoreceptor loss. […] The photoreceptor loss can also be induced in young adult CSB mice (8-10 weeks) with γ-irradiation (induces a.o. oxidative DNA damage). Since aging-related photoreceptor-loss is at least in part caused by unrepaired oxidative DNA damage, we are able to intervene with anti-oxidant or radical scavenger molecules, in particular with mannitol and/or proline. 21 CSB animals, age 6 months, received an osmotic pump, 7×30 mm (volume 200 μl), subcutaneously implanted under the skin on the back, for continuous release of Phosphate Buffered Saline (control), 0.3M D-Mannitol or 0.03M D-Mannitol dissolved in Phosphate Buffered Saline, 7 animals per compound. To determine the actual D-Mannitol concentration in the blood of these animals, blood samples were taken every 7 days after the implantation of the osmotic pump. After three weeks, eyes were isolated from these animals and TUNEL staining was performed to determine the effect of D-Mannitol on diminishing the age-related photoreceptor-loss in CSB animals, Blood and urine samples were taken for measurements of D-mannitol levels and for determination of biomarkers. In a second experiment, the D-Mannitol treatment via osmotic pumps were repeated, but here on 8 week-old CSB mice were γ-irradiated, in order to see if D-mannitol can reduce the γ-induced photoreceptor-loss observed in CSB mice. For retinal evaluation by TUNEL staining, eyes were marked nasally with Alcian blue (5% Alcian blue in 96% ethanol), enucleated, fixed in 4% paraformaldehyde in 0.1M phosphate buffer, washed in PBS and embedded in paraffin. Horizontal sections (5 μm thick) of the retina were cut and sections in the middle of the retina were selected by Alcian blue marking and proximity of the optic nerve. […] For quantification, the number of TUNEL-positive cells in the inner nuclear layer (INL) and outer nuclear layer (ONL) were counted in 6 whole sections per mouse."}, "CSB mice [4]": {"test_system": "CSB mice", "experiment": "γ-irradiation induced photoreceptor loss in CSB mice, TUNEL staining of the retina", "assay_type": "in vivo, mouse", "conditions": "osmotic pump, 8 week-old CSB mice, γ-irradiated", "protocol": "as §1, with “biomarkers.” for “biomarkers. In a second experiment, the D-Mannitol treatment via osmotic pumps were repeated, but here on 8 week-old CSB mice were γ-irradiated, in order to see if D-mannitol can reduce the γ-induced photoreceptor-loss observed in CSB mice. For retinal evaluation by TUNEL staining, eyes were marked nasally with Alcian blue (5% Alcian blue in 96% ethanol), enucleated, fixed in 4% paraformaldehyde in 0.1M phosphate buffer, washed in PBS and embedded in paraffin. Horizontal sections (5 μm thick) of the retina were cut and sections in the middle of the retina were selected by Alcian blue marking and proximity of the optic nerve.”, “mouse. […]” for “mouse.”"}, "[5]": {"experiment": "In vitro AOC (anti-oxidant capacity)", "conditions": "effective concentrations between 0.1 μg/ml and 10 μg/ml as measured in the serum", "source_text": "The compositions of the invention may be of any type. […] Mannitol and proline in particular have well documented anti-oxidant properties."}, "[6]": {"experiment": "Transmission of D-Mannitol and L-Proline from mother to pup, osmotic pump in pregnant wild type mice, LC-MS/MS levels", "conditions": "osmotic pump 200 μl, 0.3M alone or 0.2M each combined, 28 days, pregnant wild type mice (C57B1/6)", "protocol": "The sample is further precipitated using acetonitrile and centrifuged.\n(§2) The LLOQ (Lowest Limit of Quantitation) for proline is typically 0.250 μg/ml. […] The sample is further precipitated using acetonitrile and centrifuged. An aliquot of the supernatant is evaporated to dryness under a steam of nitrogen at 60° C., Milli-Q water is added and the preparation is vortexed. Methanol is subsequently added to the preparation and vortexed. Usually Milli-Q water and methanol are added in a ratio of 1/5. The preparation is centrifuged for 2 minutes at a speed of 4000 g or more. The obtained preparation is injected. The apparatus used for LC-MS/MS is API4000 LC-MS/MS."}, "[7]": {"conditions": "0.2M L-Proline via drinking water, one week, wt animals", "protocol": "as §2\nL-Proline was also measured in the blood and urine of four wt animals that received 0.2M L-Proline via their drinking water. As a control, four wt animals received just drinking water. The duration of this treatment was one week, after which one blood sample and one urine sample was taken."}, "[8]": {"conditions": "5% D-mannitol in PBS, osmotic pump in pregnant females"}}, "note": "Read-outs that look alike come from different tables or passages of the source.", "data": [{"compound": "OC[C@@H](O)[C@@H](O)[C@H](O)[C@H](O)CO", "note": "[Mannitol, hexane-1,2,3,4,5,6-hexyl]", "values": [{"measurement": "Frequency of birth and survival after birth of XPA/CSB double KO mice", "setting": "[1]; 2% D-Mannitol administered to drinking water", "result": "Comparable results"}, {"measurement": "Frequency of birth of XPA/CSB double KO mice", "setting": "[1]; [8]", "result": "increase in frequency of birth"}, {"measurement": "Survival after birth (life span) of XPA/CSB double KO mice", "setting": "[1]; [8]", "result": "increase in survival after birth"}, {"measurement": "Clearance from the tissues and bloodstream of treated subjects", "setting": "[1]", "result": "rapidly cleared"}, {"measurement": "Effectiveness of higher single dose administrations", "setting": "[1]", "result": "less or even ineffective"}, {"measurement": "concentration at 3 weeks", "setting": "[2]; 0.03 M (200 μl osmotic pump, continuous release), 0.03M D-Mannitol in PBS", "result": "100 ± 30", "unit": "ng/mL"}, {"measurement": "concentration at 3 weeks", "setting": "[2]; 0.3 M (200 μl osmotic pump, continuous release), 0.3M D-Mannitol in PBS", "result": "650 ± 180", "unit": "ng/mL"}, {"measurement": "Apoptotic index without radiation (number of TUNEL-positive cells)", "setting": "CSB mice [3]; 0.03M D-Mannitol", "result": "24.1 ± 6.8"}, {"measurement": "Apoptotic index without radiation (number of TUNEL-positive cells)", "setting": "CSB mice [3]; 0.3M D-Mannitol", "result": "24.8 ± 6.0"}, {"measurement": "Change of the apoptotic index (photoreceptor loss)", "setting": "CSB mice [3]; endogenous or exogenous (radiation induced) oxidative stress, CSB mice", "result": "significant decrease"}, {"measurement": "Apoptotic index after radiation (number of TUNEL-positive cells)", "setting": "CSB mice [4]; 0.03M D-Mannitol", "result": "29.5 ± 6.0"}, {"measurement": "Apoptotic index after radiation (number of TUNEL-positive cells)", "setting": "CSB mice [4]; 0.3M D-Mannitol", "result": "28.9 ± 11.3"}, {"measurement": "AOC (anti-oxidant capacity) in vitro", "setting": "[5]", "result": "no or negligible"}]}, {"compound": "O=C(O)[C@@H]1CCCN1", "note": "[proline, L-Proline]", "values": [{"measurement": "Clearance from the tissues and bloodstream of treated subjects", "setting": "[1]", "result": "rapidly cleared"}, {"measurement": "Effectiveness of higher single dose administrations", "setting": "[1]", "result": "less or even ineffective"}, {"measurement": "Frequency of survival of DKO pups after birth", "setting": "[1]; proline treatment", "result": "equally effective in increasing the frequency of survival"}, {"measurement": "Elevated levels in blood of mothers and pups, in milk or in whole embryo's", "setting": "[6]", "result": "not detected"}, {"measurement": "L-Proline levels in the blood", "setting": "[7]", "result": "no elevated levels"}, {"measurement": "L-Proline levels in the urine", "setting": "[7]", "result": "High levels"}, {"measurement": "AOC (anti-oxidant capacity) in vitro", "setting": "[5]", "result": "no or negligible"}]}, {"compound": "O=C1O[C@H]([C@@H](O)CO)C(O)=C1O", "note": "[vitamin C]", "values": [{"measurement": "Positive results as with mannitol and/or proline", "setting": "[1]", "result": "did not yield the positive results"}]}, {"compound": "vitamin E", "values": [{"measurement": "Positive results as with mannitol and/or proline", "setting": "[1]", "result": "did not yield the positive results"}]}]}
